The record followed here is paper PMC6530635, “A Novel Single-Site Mutation in the Catalytic Domain of Protoporphyrinogen Oxidase IX (PPO) Confers Resistance to PPO-Inhibiting Herbicides” (Frontiers in Plant Science, 2019).

What all share (assay type): biochemical
Experiment [1] concerns recombinant Amaranthus tuberculatus PPO2 ΔG210.
Experiment [2] deals with recombinant Amaranthus tuberculatus PPO2 R128L.
The subject of experiment [3] is recombinant Amaranthus tuberculatus PPO2 G399A.

The structures appear in SMILES notation.

Turning to `O=C(O)c1cc(Oc2ccc(C(F)(F)F)cc2Cl)ccc1[N+](=O)[O-]` [Acifluorfen], in experiment [1], the “Resistance factor ΔG210 (IC50 mutant / IC50 sensitive PPO2)” value was above 541. Besides, the “Resistance factor R128L (IC50 mutant / IC50 sensitive PPO2)” value in experiment [2] is above 541. For the same compound, the “Resistance factor G399A (IC50 mutant / IC50 sensitive PPO2)” value in experiment [3] is given as above 541.
Turning to `C=CCOC(=O)C(C)(C)OC(=O)c1cc(-n2c(=O)cc(C(F)(F)F)n(C)c2=O)ccc1Cl` [Butafenacil], the “Resistance factor ΔG210 (IC50 mutant / IC50 sensitive PPO2)” value in experiment [1] was determined as 17578. Besides, in experiment [2], the “Resistance factor R128L (IC50 mutant / IC50 sensitive PPO2)” value is 23. In experiment [3], the “Resistance factor G399A (IC50 mutant / IC50 sensitive PPO2)” value turned out to be 741.
On the same counts, the results for `Cc1nn(-c2cc(CC(Cl)C(=O)O)c(Cl)cc2F)c(=O)n1C(F)F` (stereo not shown) [Carfentrazone] are 3957, 3 and 116.
As for `C#CCN1C(=O)COc2cc(F)c(N3C(=O)C4=C(CCCC4)C3=O)cc21` [Flumioxazin], the “Resistance factor ΔG210 (IC50 mutant / IC50 sensitive PPO2)” value in experiment [1] was 3157. Further, the “Resistance factor R128L (IC50 mutant / IC50 sensitive PPO2)” value in experiment [2] was 2631. Also, in experiment [3], the “Resistance factor G399A (IC50 mutant / IC50 sensitive PPO2)” value came to 868.
For the compound `COC(=O)CSc1cc(/N=c2\sc(=O)n3n2CCCC3)c(F)cc1Cl` [Fluthiacet-methyl], in experiment [1], the “Resistance factor ΔG210 (IC50 mutant / IC50 sensitive PPO2)” value came to 94. Further, the “Resistance factor R128L (IC50 mutant / IC50 sensitive PPO2)” value in experiment [2] is 4. In addition, the “Resistance factor G399A (IC50 mutant / IC50 sensitive PPO2)” value in experiment [3] is given as 3567.
`CCOC(=O)C(C)OC(=O)c1cc(Oc2ccc(C(F)(F)F)cc2Cl)ccc1[N+](=O)[O-]` (stereo not shown) [Lactofen]: the “Resistance factor ΔG210 (IC50 mutant / IC50 sensitive PPO2)” value in experiment [1] amounted to 18271. In addition, in experiment [2], the “Resistance factor R128L (IC50 mutant / IC50 sensitive PPO2)” value was found to be 2812. Moreover, the “Resistance factor G399A (IC50 mutant / IC50 sensitive PPO2)” value in experiment [3] worked out at 28167.
For `CC(C)Oc1cc(-n2nc(C(C)(C)C)oc2=O)c(Cl)cc1Cl` [Oxadiazon], in experiment [1], the “Resistance factor ΔG210 (IC50 mutant / IC50 sensitive PPO2)” value is 151. Further, in experiment [2], the “Resistance factor R128L (IC50 mutant / IC50 sensitive PPO2)” value is listed as 1. Further, the “Resistance factor G399A (IC50 mutant / IC50 sensitive PPO2)” value in experiment [3] is 285.
With `CCOc1cc(Oc2ccc(C(F)(F)F)cc2Cl)ccc1[N+](=O)[O-]` [Oxyfluorfen], the “Resistance factor ΔG210 (IC50 mutant / IC50 sensitive PPO2)” value in experiment [1] was found to be 982. In experiment [2], the “Resistance factor R128L (IC50 mutant / IC50 sensitive PPO2)” value is given as 74. Besides, the “Resistance factor G399A (IC50 mutant / IC50 sensitive PPO2)” value in experiment [3] is on record as 18548.
On the same counts, the results for `C#CCN(C)c1c(C#N)cnn1-c1nn2c(c1Cl)CCCC2` [Pyraclonil] are 782, 0 and 799.
On the same counts, the results for `CCOC(=O)COc1cc(-c2nn(C)c(OC(F)F)c2Cl)c(F)cc1Cl` [Pyraflufen-ethyl] are 1083, 1 and 11816.
In the case of `Cc1nn(-c2cc(NS(C)(=O)=O)c(Cl)cc2Cl)c(=O)n1C(F)F` [Sulfentrazone], the “Resistance factor G399A (IC50 mutant / IC50 sensitive PPO2)” value in experiment [3] was 282.
